{
  "source": "the NIST ThermoML archive (doi:10.1016/j.jct.2012.09.026)",
  "key": {"[1]": {"experiment": "xn = mol fraction of the nth substance listed", "conditions": "Liquid, x2 = 0"}, "[2]": {"conditions": "Liquid, Vibrating tube method"}},
  "note": "± gives the expanded uncertainty stated by the source.",
  "data": [
    {"compound": "O", "note": "[water] + CC(C)(C)O", "values": [
      {"measurement": "mass density", "setting": "[1]; 278.15 K, 101.3 kPa, Vibrating tube method", "value": "999.96 ± 1", "unit": "kg/m3"},
      {"measurement": "mass density", "setting": "[1]; 278.15 K, 10000 kPa, Constant-volume piezometry", "value": "1004.77 ± 1", "unit": "kg/m3"},
      {"measurement": "mass density", "setting": "[1]; 278.15 K, 25000 kPa, Constant-volume piezometry", "value": "1011.88 ± 1.1", "unit": "kg/m3"},
      {"measurement": "mass density", "setting": "[1]; 278.15 K, 50000 kPa, Constant-volume piezometry", "value": "1023.2 ± 1.1", "unit": "kg/m3"},
      {"measurement": "mass density", "setting": "[1]; 278.15 K, 75000 kPa, Constant-volume piezometry", "value": "1033.91 ± 1.2", "unit": "kg/m3"},
      {"measurement": "mass density", "setting": "[1]; 278.15 K, 100000 kPa, Constant-volume piezometry", "value": "1044.08 ± 1.3", "unit": "kg/m3"},
      {"measurement": "mass density", "setting": "[1]; 288.15 K, 10000 kPa, Constant-volume piezometry", "value": "1003.67 ± 1", "unit": "kg/m3"},
      {"measurement": "mass density", "setting": "[1]; 288.15 K, 25000 kPa, Constant-volume piezometry", "value": "1010.42 ± 1.1", "unit": "kg/m3"},
      {"measurement": "mass density", "setting": "[1]; 288.15 K, 50000 kPa, Constant-volume piezometry", "value": "1021.21 ± 1.1", "unit": "kg/m3"},
      {"measurement": "mass density", "setting": "[1]; 288.15 K, 75000 kPa, Constant-volume piezometry", "value": "1031.47 ± 1.2", "unit": "kg/m3"},
      {"measurement": "mass density", "setting": "[1]; 288.15 K, 100000 kPa, Constant-volume piezometry", "value": "1041.23 ± 1.3", "unit": "kg/m3"},
      {"measurement": "mass density", "setting": "[1]; 298.15 K, 10000 kPa, Constant-volume piezometry", "value": "1001.47 ± 1", "unit": "kg/m3"},
      {"measurement": "mass density", "setting": "[1]; 298.15 K, 25000 kPa, Constant-volume piezometry", "value": "1007.99 ± 1.1", "unit": "kg/m3"},
      {"measurement": "mass density", "setting": "[1]; 298.15 K, 50000 kPa, Constant-volume piezometry", "value": "1018.44 ± 1.1", "unit": "kg/m3"},
      {"measurement": "mass density", "setting": "[1]; 298.15 K, 75000 kPa, Constant-volume piezometry", "value": "1028.37 ± 1.2", "unit": "kg/m3"},
      {"measurement": "mass density", "setting": "[1]; 298.15 K, 100000 kPa, Constant-volume piezometry", "value": "1037.86 ± 1.3", "unit": "kg/m3"},
      {"measurement": "mass density", "setting": "[1]; 308.15 K, 10000 kPa, Constant-volume piezometry", "value": "998.36 ± 1", "unit": "kg/m3"},
      {"measurement": "mass density", "setting": "[1]; 308.15 K, 25000 kPa, Constant-volume piezometry", "value": "1004.75 ± 1.1", "unit": "kg/m3"},
      {"measurement": "mass density", "setting": "[1]; 308.15 K, 50000 kPa, Constant-volume piezometry", "value": "1014.97 ± 1.1", "unit": "kg/m3"},
      {"measurement": "mass density", "setting": "[1]; 308.15 K, 75000 kPa, Constant-volume piezometry", "value": "1024.71 ± 1.2", "unit": "kg/m3"},
      {"measurement": "mass density", "setting": "[1]; 308.15 K, 100000 kPa, Constant-volume piezometry", "value": "1034 ± 1.3", "unit": "kg/m3"},
      {"measurement": "mass density", "setting": "[1]; 323.15 K, 101.3 kPa, Vibrating tube method", "value": "988.03 ± 1", "unit": "kg/m3"},
      {"measurement": "mass density", "setting": "[1]; 323.15 K, 10000 kPa, Constant-volume piezometry", "value": "992.31 ± 1", "unit": "kg/m3"},
      {"measurement": "mass density", "setting": "[1]; 323.15 K, 25000 kPa, Constant-volume piezometry", "value": "998.61 ± 1.1", "unit": "kg/m3"},
      {"measurement": "mass density", "setting": "[1]; 323.15 K, 50000 kPa, Constant-volume piezometry", "value": "1008.68 ± 1.1", "unit": "kg/m3"},
      {"measurement": "mass density", "setting": "[1]; 323.15 K, 75000 kPa, Constant-volume piezometry", "value": "1018.27 ± 1.2", "unit": "kg/m3"},
      {"measurement": "mass density", "setting": "[1]; 323.15 K, 100000 kPa, Constant-volume piezometry", "value": "1027.42 ± 1.3", "unit": "kg/m3"}
    ]},
    {"compound": "CC(C)(C)O", "note": "[2-methylpropan-2-ol]", "values": [
      {"measurement": "mass density", "setting": "[2]; 308.15 K, 101.3 kPa", "value": "770.14 ± 1", "unit": "kg/m3"},
      {"measurement": "mass density", "setting": "[2]; 323.15 K, 101.3 kPa", "value": "753.94 ± 1", "unit": "kg/m3"},
      {"measurement": "mass density", "setting": "[2]; 323.15 K, 10000 kPa", "value": "764.58 ± 1", "unit": "kg/m3"},
      {"measurement": "mass density", "setting": "[2]; 323.15 K, 25000 kPa", "value": "778.73 ± 1.1", "unit": "kg/m3"},
      {"measurement": "mass density", "setting": "[2]; 323.15 K, 50000 kPa", "value": "798.2 ± 1.1", "unit": "kg/m3"},
      {"measurement": "mass density", "setting": "[2]; 323.15 K, 75000 kPa", "value": "813.79 ± 1.2", "unit": "kg/m3"},
      {"measurement": "mass density", "setting": "[2]; 323.15 K, 100000 kPa", "value": "827.34 ± 1.3", "unit": "kg/m3"}
    ]},
    {"compound": "O", "note": "[water]", "values": [
      {"measurement": "mass density", "setting": "[2]; 278.15 K, 101.3 kPa", "value": "999.96 ± 1", "unit": "kg/m3"},
      {"measurement": "mass density", "setting": "[2]; 278.15 K, 10000 kPa", "value": "1004.77 ± 1", "unit": "kg/m3"},
      {"measurement": "mass density", "setting": "[2]; 278.15 K, 25000 kPa", "value": "1011.88 ± 1.1", "unit": "kg/m3"},
      {"measurement": "mass density", "setting": "[2]; 278.15 K, 50000 kPa", "value": "1023.2 ± 1.1", "unit": "kg/m3"},
      {"measurement": "mass density", "setting": "[2]; 278.15 K, 75000 kPa", "value": "1033.91 ± 1.2", "unit": "kg/m3"},
      {"measurement": "mass density", "setting": "[2]; 278.15 K, 100000 kPa", "value": "1044.08 ± 1.3", "unit": "kg/m3"},
      {"measurement": "mass density", "setting": "[2]; 288.15 K, 10000 kPa", "value": "1003.67 ± 1", "unit": "kg/m3"},
      {"measurement": "mass density", "setting": "[2]; 288.15 K, 25000 kPa", "value": "1010.42 ± 1.1", "unit": "kg/m3"},
      {"measurement": "mass density", "setting": "[2]; 288.15 K, 50000 kPa", "value": "1021.21 ± 1.1", "unit": "kg/m3"},
      {"measurement": "mass density", "setting": "[2]; 288.15 K, 75000 kPa", "value": "1031.47 ± 1.2", "unit": "kg/m3"},
      {"measurement": "mass density", "setting": "[2]; 288.15 K, 100000 kPa", "value": "1041.23 ± 1.3", "unit": "kg/m3"},
      {"measurement": "mass density", "setting": "[2]; 298.15 K, 10000 kPa", "value": "1001.47 ± 1", "unit": "kg/m3"},
      {"measurement": "mass density", "setting": "[2]; 298.15 K, 25000 kPa", "value": "1007.99 ± 1.1", "unit": "kg/m3"},
      {"measurement": "mass density", "setting": "[2]; 298.15 K, 50000 kPa", "value": "1018.44 ± 1.1", "unit": "kg/m3"},
      {"measurement": "mass density", "setting": "[2]; 298.15 K, 75000 kPa", "value": "1028.37 ± 1.2", "unit": "kg/m3"},
      {"measurement": "mass density", "setting": "[2]; 298.15 K, 100000 kPa", "value": "1037.86 ± 1.3", "unit": "kg/m3"},
      {"measurement": "mass density", "setting": "[2]; 308.15 K, 10000 kPa", "value": "998.36 ± 1", "unit": "kg/m3"},
      {"measurement": "mass density", "setting": "[2]; 308.15 K, 25000 kPa", "value": "1004.75 ± 1.1", "unit": "kg/m3"},
      {"measurement": "mass density", "setting": "[2]; 308.15 K, 50000 kPa", "value": "1014.97 ± 1.1", "unit": "kg/m3"},
      {"measurement": "mass density", "setting": "[2]; 308.15 K, 75000 kPa", "value": "1024.71 ± 1.2", "unit": "kg/m3"},
      {"measurement": "mass density", "setting": "[2]; 308.15 K, 100000 kPa", "value": "1034 ± 1.3", "unit": "kg/m3"},
      {"measurement": "mass density", "setting": "[2]; 323.15 K, 101.3 kPa", "value": "988.03 ± 1", "unit": "kg/m3"},
      {"measurement": "mass density", "setting": "[2]; 323.15 K, 10000 kPa", "value": "992.31 ± 1", "unit": "kg/m3"},
      {"measurement": "mass density", "setting": "[2]; 323.15 K, 25000 kPa", "value": "998.61 ± 1.1", "unit": "kg/m3"},
      {"measurement": "mass density", "setting": "[2]; 323.15 K, 50000 kPa", "value": "1008.68 ± 1.1", "unit": "kg/m3"},
      {"measurement": "mass density", "setting": "[2]; 323.15 K, 75000 kPa", "value": "1018.27 ± 1.2", "unit": "kg/m3"},
      {"measurement": "mass density", "setting": "[2]; 323.15 K, 100000 kPa", "value": "1027.42 ± 1.3", "unit": "kg/m3"}
    ]}
  ]
}
